Laboratory results reported in PMC12866179, “Oxidized MIF is an Alzheimer’s disease drug target relaying external risk factors to tau pathology” (Cell Reports Medicine, 2025).

Columns and labels:
HSV-1 = HSV-1 infection of differentiated LUHMES cells (immunocytochemistry, western blot); assay type: cell-based, HSV-1 KOS strain; conditions: infected with HSV-1
Method: 4x10^5 Vero cells, 8x10^5 SH-SY5Y or 2x10^6 differentiated LUHMES (differentiation day 6) cells were seeded into 12-well plates. After 24h the cells were treated with compounds (as indicated in the figures) and after 1h they were infected with HSV-1 applying MOIs as described in the figures. After 20h (or at indicated time points) cells were either washed twice with PBS, then lysed in cold PBS/1% NP40 including the cOmplete EDTA-free protease inhibitor cocktail (Roche) and phosphatase inhibitor cocktail (Sigma) or virus was released by freeze-thawing and ultrasonic treatment for analysis in viral plaque assay (see above). For immunocytochemistry analysis 5x10^4 LUHMES cells at differentiation day 2 were seeded on 13 mm coverslips that were coated with L-ornithine and fibronectin (see above) and placed into 24-well plates. After four additional days of differentiation the cells were infected with HSV-1 (MOI = 1). […] After the protein concentration of cell lysates and homogenates had been determined using the DC Protein Assay Kit (Bio-Rad), 20 μg of each sample were dissolved in NuPAGE LDS Sample buffer (including 2% β-mercaptoethanol), boiled at 100°C for 5 min and then separated on NuPAGE Novex 4–12% Bis-Tris midi gels (Invitrogen) using NuPAGE MES SDS Running buffer (Invitrogen). […] Signal intensities were calculated using the Image Studio Version 2.1 software (LI-COR Biosciences). […]

[1] = assay type: in vivo; conditions: compared with PAV-174
Method: Figure S5. PAV-17 4 decreases ta u phosphorylation and aggr e gat ion in vi v o. Rel a ted to […]
(A) MTD (Maximum Tol erated Dose) assessment of PAV com pounds in BALB/c mice. BALB/c mice we re dosed through int ra pe rit o ne al (IP ) ro ute at di ff e ren t doses as pe r bo dy we igh t of an ima ls an d mice we re obser ved at di ff e ren t time interval for toxic signs till 48 h, PD (Post dose) . MTD at wa s declared at NOAEL (No-obser ved-adver se-effect level) conc. of PAV […]
(B) PAV-61 7 dose- an d MIF-de pe nd en t ly reduces tau phosphorylati on (A T8) . SH-SY5Y-P301S-control or -MIF-knockdown cel ls we re treated with the indicated concentrations of PAV- […]
cel ls. The di ag ram s show the signals of AT8 normalized to total tau (HT7 ) from six (n =6) in de pe nd en t exper iments. One-wa y ANOVA (Sidak´s post-hoc)
(C) Pharmacokinetic assessment of PAV-61 7 in Sprague Da wley ra ts (S D). Ma le SD ra ts (n=4) we re dosed via three ro utes na me ly intravenous (IV )- 1 mg/kg, (IP )- 5 mg/kg an d per ora l (P O)- 5 mg/kg. Plasma concentration wa s anal yzed at di ff e ren t time intervals. Pharmacokinetic pa ra met e rs we re de t erm ine d usi ng Win No nlin . Cma x (p ea k pl asma concentration) achieved through IV wa s 12 8 ng / mL, IP wa s 36 2. 6 ng / mL an d PO wa s 15 1. 1 ng / mL at Tmax (time of pe ak concentration obser ved) 1 h, 0. 5 h an d 4 h respectively. […]

Compound	viral antigens (HSV-1-gC) in differentiated LUHMES cells (HSV-1)	toxicity in mice [1]
CCc1cc(N2CCCC2)cc2[s+]c3cc(N4CCCC4)cc(C)c3nc12.[I-] [PAV-174, 3,7-Di(pyrrolidine-1-yl) 1-ethyl-9-methyl-phenothiazin-5-ium iodide]	reduced	
[I-].c1cc2nc3ccc(N4CCCC4)cc3[s+]c2cc1N1CCCC1 [PAV-617, 3,7-Di(pyrrolidine-1-yl)phenothiazine-5-ium iodide]		less toxic in mice
